# PMC7895462 (Neurochemical research, 2017)
# Read-outs that look alike come from different tables or passages of the source.
# Legend:
# MES-induced seizures [1] = experiment: Maximal electroshock; format: in vivo; conditions: for Mouse I.P identification MES / Mouse P.O. identification MES: 0.5 and 2 h, default doses 30, 100, 300 mg/kg; for ED50: Mus musculus
# [2] = system: psychomotor seizures induced by 6 Hz 44 mA corneal stimulus; experiment: 6 Hz 44 mA mouse test; format: in vivo; conditions: for Mouse I.P identification 44 mA / Mouse P.O. identification 44 mA: 0.5 and 2 h, default doses 30, 100, 300 mg/kg; for ED50: Mus musculus
# MES-induced seizures [3] = experiment: Maximal electroshock; format: in vivo
# [4] = system: spontaneous bursting of a mEC-HC slice; experiment: In vitro post-KA rat spontaneous bursting mEC-HC slice; format: cell-based
# [5] = system: 60 Hz corneal kindled seizures; conditions: for average seizure score (SEM): corneal kindled mouse
# [6] = in vivo; for Rat I.P. identification TOX: ip; for Rat P.O. identification TOX: po
# [7] = system: 60 Hz corneal kindled seizures; experiment: animal or person; conditions: Mus musculus, ip
# in vivo [8] = conditions: mouse
# in vivo [9] = conditions: rat
# [10] = for Mouse I.P identification TOX / Mouse P.O. identification TOX: 0.5 and 2 h, default doses 30, 100, 300 mg/kg
# Minimal motor impairment = conditions: for TD50: rat, in vivo
# [11] = Open field activity monitor of rats; format: in vivo; conditions: rat; i.p.; 45 and 60 mg/kg; 10 min; vs vehicle
# [12] = read-out: Mouse CKM (I.P.) Quant (ED50), i.p.
# [13] = ip, read-out: Mouse I.P. quantification MES (ED50)
# [14] = po, read-out: Mouse P.O. quantification MES (ED50)
# [15] = ip, read-out: Mouse I.P. quantification 44 mA (ED50)
# [16] = po, read-out: Mouse P.O. quantification 44 mA (ED50)
# [17] = read-out: Mouse CKM (I.P.) Quant (ED50)
# [18] = ip, Rat I.P. quantification TOX (TD50)
# [19] = po, Rat P.O. quantification TOX (TD50)
# [20] = 30 mg/kg (n = 2 mice) and 40 mg/kg (n = 1 mouse)
compound,measurement,setting,value
"CC(=O)Nc1ccc(O)cc1 [Acetaminophen, acetaminophen]",Mouse I.P identification MES,MES-induced seizures [1]; i.p.,−
same,Mouse P.O. identification MES,MES-induced seizures [1],−
same,Mouse I.P identification 44 mA,"[2]; i.p., 6 Hz 44 mA",−
same,Mouse P.O. identification 44 mA,[2]; 6 Hz 44 mA,−
same,Rat I.P. identification MES,MES-induced seizures [3]; i.p.,−
same,Rat P.O. identification MES,MES-induced seizures [3],−
same,amplitude of spontaneous bursts,[4]; 3000 μM,"small, but significant increase"
same,acute effects on spontaneous bursting in vitro,[4]; concentrations up to 1000 μM,did not identify any acute effects
same,protected in the corneal kindled mouse,"[5]; 20 mg/kg, i.p., 30 min after administration",1/8
same,protected in the corneal kindled mouse,"[5]; 80 mg/kg, i.p., 30 min after administration",0/8
same,protected in the corneal kindled mouse,"[5]; 120 mg/kg, i.p., 30 min after administration",1/8
same,protected in the corneal kindled mouse,"[5]; 150 mg/kg, i.p., 30 min after administration",2/8
same,protected in the corneal kindled mouse,"[5]; 175 mg/kg, i.p., 30 min after administration",0/12
same,death of corneal kindled mice,"[5]; 450 mg/kg, 24-hours later",1/4
same,protected in the corneal kindled mouse,"[5]; 450 mg/kg, i.p., 30 min after administration",3/4
same,Mouse CKM (I.P.) ID,[5]; i.p.,+
same,Rat I.P. identification TOX,[6],−
same,Rat P.O. identification TOX,[6],−
same,ED50,[7]; [12],> 450 mg/kg
"NC(=O)N1c2ccccc2C=Cc2ccccc21 [Carbamazepine, carbamazepine]",ED50,MES-induced seizures [1]; [13],8.38 mg/kg
same,ED50,MES-induced seizures [1]; [14],11.3 mg/kg
same,Mouse I.P identification MES,MES-induced seizures [1]; i.p.,+
same,Mouse P.O. identification MES,MES-induced seizures [1],+
same,ED50,[2]; [15],31.4 mg/kg
same,ED50,[2]; [16],63.7 mg/kg
same,Mouse I.P identification 44 mA,"[2]; i.p., 6 Hz 44 mA",+
same,Mouse P.O. identification 44 mA,[2]; 6 Hz 44 mA,+
same,Rat I.P. identification MES,MES-induced seizures [3]; i.p.,+
same,Rat P.O. identification MES,MES-induced seizures [3],+
same,Mouse CKM (I.P.) ID,[5]; i.p.,+
same,"protective index (PI), corneal kindled mouse","[5]; male, CF-1, mouse, in vivo, ip",7.1
same,Rat I.P. identification TOX,[6],+
same,Rat P.O. identification TOX,[6],+
same,TD50,in vivo [8]; po,95.4 mg/kg
same,TD50,in vivo [9]; ip,22.9 mg/kg
same,TD50,in vivo [9]; po,> 500 mg/kg
same,ED50,[7]; [12],6.42 mg/kg
"CN1C(=O)CC(=O)N(c2ccccc2)c2cc(Cl)ccc21 [Clobazam, clobazam]",ED50,MES-induced seizures [1]; [13],16.5 mg/kg
same,ED50,MES-induced seizures [1]; [14],29.9 mg/kg
same,Mouse I.P identification MES,MES-induced seizures [1]; i.p.,+
same,Mouse P.O. identification MES,MES-induced seizures [1],+
same,ED50,[2]; [15],4.5 mg/kg
same,ED50,[2]; [16],6.99 mg/kg
same,Mouse I.P identification 44 mA,"[2]; i.p., 6 Hz 44 mA",+
same,Mouse P.O. identification 44 mA,[2]; 6 Hz 44 mA,+
same,Rat I.P. identification MES,MES-induced seizures [3]; i.p.,−
same,Rat P.O. identification MES,MES-induced seizures [3],−
same,Mouse I.P identification TOX,[10]; i.p.,+
same,Mouse P.O. identification TOX,[10],−
same,"protective index (PI), corneal kindled mouse",[5]; calculated based on the i.p. TD50,10.3
same,Mouse CKM (I.P.) ID,[5]; i.p.,+
same,TD50,in vivo [8]; ip,26.1 mg/kg
same,TD50,in vivo [8]; po,197 mg/kg
same,ED50,[7]; [17],2.53 mg/kg
same,Rat I.P. identification TOX,Minimal motor impairment; i.p.,−
same,Rat P.O. identification TOX,Minimal motor impairment,−
same,TD50,Minimal motor impairment; [18],15.7 mg/kg
"CC[C@@H](C(N)=O)N1CCCC1=O [Levetiracetam, levetiracetam]",Mouse I.P identification MES,MES-induced seizures [1]; i.p.,−
same,Mouse P.O. identification MES,MES-induced seizures [1],−
same,ED50,[2]; [15],> 1500 mg/kg
same,ED50,[2]; [16],> 500 mg/kg
same,Mouse I.P identification 44 mA,"[2]; i.p., 6 Hz 44 mA",+
same,Mouse P.O. identification 44 mA,[2]; 6 Hz 44 mA,+
same,Rat I.P. identification MES,MES-induced seizures [3]; i.p.,−
same,Rat P.O. identification MES,MES-induced seizures [3],−
same,Mouse CKM (I.P.) ID,[5]; i.p.,+
same,Rat I.P. identification TOX,[6],−
same,Rat P.O. identification TOX,[6],−
same,TD50,in vivo [8]; ip,> 1500 mg/kg
same,TD50,in vivo [8]; po,> 500 mg/kg
"OC[C@H]1O[C@@H](n2cnc3c(NC4CCCC4)ncnc32)[C@H](O)[C@@H]1O [N6-Cyclopentyladenosine, N^6-cyclopentyladenosine]",ED50,MES-induced seizures [1]; [13],1.01 mg/kg
same,ED50,MES-induced seizures [1]; [14],4.43 mg/kg
same,Mouse I.P identification MES,MES-induced seizures [1]; i.p.,+
same,Mouse P.O. identification MES,MES-induced seizures [1],+
same,ED50,[2]; [15],0.19 mg/kg
same,ED50,[2]; [16],1.36 mg/kg
same,Mouse I.P identification 44 mA,"[2]; i.p., 6 Hz 44 mA",+
same,Mouse P.O. identification 44 mA,[2]; 6 Hz 44 mA,+
same,Rat I.P. identification MES,MES-induced seizures [3]; i.p.,+
same,Rat P.O. identification MES,MES-induced seizures [3],+
same,Mouse I.P identification TOX,[10]; i.p.,+
same,Mouse P.O. identification TOX,[10],+
same,average seizure score (SEM),[5]; 0.1 mg/kg,4.75 ± 0.25
same,average seizure score (SEM),[5]; 2 mg/kg,4.88 ± 0.13
same,Mouse CKM (I.P.) ID,[5]; i.p.,−
same,TD50,in vivo [8]; ip,0.94 mg/kg
same,TD50,in vivo [8]; po,6.94 mg/kg
same,Rat I.P. identification TOX,Minimal motor impairment; i.p.,+
same,Rat P.O. identification TOX,Minimal motor impairment,+
same,TD50,Minimal motor impairment; [19],> 10 mg/kg
"CCOC(=O)Nc1ccc(NCc2ccc(F)cc2)cc1N [Retigabine, retigabine]",ED50,MES-induced seizures [1]; [13],25.7 mg/kg
same,ED50,MES-induced seizures [1]; [14],57 mg/kg
same,Mouse I.P identification MES,MES-induced seizures [1]; i.p.,+
same,Mouse P.O. identification MES,MES-induced seizures [1],+
same,ED50,[2]; [15],32.5 mg/kg
same,ED50,[2]; [16],75.1 mg/kg
same,Mouse I.P identification 44 mA,"[2]; i.p., 6 Hz 44 mA",+
same,Mouse P.O. identification 44 mA,[2]; 6 Hz 44 mA,+
same,Rat I.P. identification MES,MES-induced seizures [3]; i.p.,+
same,Rat P.O. identification MES,MES-induced seizures [3],+
same,Mouse P.O. identification TOX,[10],+
same,Mouse CKM (I.P.) ID,[5]; i.p.,+
same,TD50,in vivo [8]; ip,129 mg/kg
same,TD50,in vivo [8]; po,> 500 mg/kg
same,ED50,[7]; [17],13.7 mg/kg
same,Rat I.P. identification TOX,Minimal motor impairment; i.p.,+
same,Rat P.O. identification TOX,Minimal motor impairment,+
same,TD50,Minimal motor impairment; [18],23.4 mg/kg
same,TD50,Minimal motor impairment; [19],64.4 mg/kg
"Cc1ccsc1C(=CCCN1CCC[C@@H](C(=O)O)C1)c1sccc1C [Tiagabine, tiagabine]",Mouse I.P identification MES,MES-induced seizures [1]; i.p.,−
same,Mouse P.O. identification MES,MES-induced seizures [1],−
same,ED50,[2]; [15],1.03 mg/kg
same,ED50,[2]; [16],1.87 mg/kg
same,Mouse I.P identification 44 mA,"[2]; i.p., 6 Hz 44 mA",+
same,Mouse P.O. identification 44 mA,[2]; 6 Hz 44 mA,+
same,Rat I.P. identification MES,MES-induced seizures [3]; i.p.,−
same,Rat P.O. identification MES,MES-induced seizures [3],−
same,Rat I.P. identification TOX,[6],+
same,Rat P.O. identification TOX,[6],−
same,TD50,in vivo [8]; ip,5.84 mg/kg
same,TD50,in vivo [8]; po,33.2 mg/kg
"CCCC(CCC)C(=O)O [Valproic acid, valproic acid]",ED50,MES-induced seizures [1]; [13],> 60 mg/kg
same,ED50,MES-induced seizures [1]; [14],> 300 mg/kg
same,Mouse P.O. identification MES,MES-induced seizures [1],−
same,ED50,[2]; [15],239 mg/kg
same,ED50,[2]; [16],> 300 mg/kg
same,Mouse I.P identification 44 mA,"[2]; i.p., 6 Hz 44 mA",+
same,Mouse P.O. identification 44 mA,[2]; 6 Hz 44 mA,−
same,Rat I.P. identification MES,MES-induced seizures [3]; i.p.,−
same,Rat P.O. identification MES,MES-induced seizures [3],−
same,Mouse CKM (I.P.) ID,[5]; i.p.,+
same,Mouse CKM (I.P.) Quant (ED50),[5]; i.p.,94.02 mg/kg
same,"protective index (PI), corneal kindled mouse","[5]; male, CF-1, mouse, in vivo, ip",> 94
same,Rat I.P. identification TOX,[6],−
same,Rat P.O. identification TOX,[6],−
same,TD50,in vivo [8]; ip,> 300 mg/kg
same,TD50,in vivo [8]; po,< 300 mg/kg
same,ED50,[7]; [12],94 mg/kg
"Clc1cccc(N2CCNCC2)c1 [m-CPP, meta-chlorophenylpiperazine]",Mouse I.P identification MES,MES-induced seizures [1]; i.p.,−
same,Mouse I.P. quantification MES (ED50),"MES-induced seizures [1]; i.p., at time of peak effect",>60 mg/kg
same,"protective index (PI), i.p., MES test","MES-induced seizures [1]; mouse, i.p.",less than 1.0
same,Mouse P.O. identification MES,MES-induced seizures [1],−
same,mice protected in the MES test,"MES-induced seizures [1]; screening, at 10 and 30 mg/kg",one out of four
same,Mouse I.P identification 44 mA,"[2]; i.p., 6 Hz 44 mA",−
same,Mouse I.P. quantification 44 mA (ED50),"[2]; i.p., 6 Hz 44 mA, at time of peak effect",>55 mg/kg
same,Mouse P.O. identification 44 mA,[2]; 6 Hz 44 mA,−
same,Rat I.P. identification MES,MES-induced seizures [3]; i.p.,+
same,Rat I.P. quantification MES (ED50),MES-induced seizures [3]; i.p.,37.1 mg/kg
same,Rat P.O. identification MES,MES-induced seizures [3],+
same,total distance travelled in the open field,[11],"significant, dose-dependent reduction"
same,MMI in corneal kindled mice,[10]; [20],significant MMI in all animals tested
same,mice with significant MMI on the rotarod assay,"[10]; corneal kindled mice, 20 mg/kg, i.p., 15 min",3/8
same,Mouse I.P identification TOX,[10]; i.p.,+
same,Mouse I.P. quantification TOX (TD50),"[10]; i.p., rotorod",52.6 mg/kg
same,Mouse P.O. identification TOX,[10],−
same,protected in the corneal kindled mouse,"[5]; 20 mg/kg, i.p., 15 min prior to testing",0/8
same,protection in the corneal kindled mouse,[5]; [20],lack of protection
same,adverse side effects in corneal kindled mice,[5]; at the highest doses tested,"severe adverse side effects, including splaying, tremors, and mortality following seizure"
same,Mouse CKM (I.P.) ID,[5]; i.p.,−
same,Rat I.P. identification TOX,Minimal motor impairment; i.p.,−
same,Rat I.P. quantification TOX (TD50),Minimal motor impairment; i.p.,<10 mg/kg
same,Rat P.O. identification TOX,Minimal motor impairment,−
